Target: T1, CDK8 (CDK8/CycC) (Homo sapiens, UniProt P49336)
T1 construct: purchased Invitrogen PV4402
Assay: FRET based Lanthascreen binding competition assay
Conditions: 5 nM CDK8/CycC, 10 nM Alexa647-Tracer, 1% DMSO, 60 min at RT; read-out: IC50 CDK8 binding
Procedure: FRET based Lanthascreen binding competition assay: A dye-labeled ATP competitive probe served as a FRET acceptor upon binding to CDK8 labeled with a strepavidin —Eu-chelate (via abiotinylated anti His antibody). […] In case this probe was competed by an inhibitor as such a signal cannot be generated any more. The CDK8 used for this assay was a protein co-expressed with CycC.
The assay procedure for an assay in a 1536 well plate was performed according to the following: 2 μL CDK8/biotin-anti-His Ab/SA-Eu mix in Assay buffer were pipetted into the wells of a micro plate.
1 μL compound in 20 mM Hepes buffer/5% DMSO was added. The plate was shaken for 30 sec and incubated for 20 min at RT. 2 μL Alexa647-probe in assay buffer were added. The plate was shaken for 30 sec again and incubated for 60 min at RT in the dark. Then the plate was read out on a Perkin Elmer Envision (mode LANCE/TRF, excitation 340 nm emission 650 nm).

T1 sequence (P49336 whole entry): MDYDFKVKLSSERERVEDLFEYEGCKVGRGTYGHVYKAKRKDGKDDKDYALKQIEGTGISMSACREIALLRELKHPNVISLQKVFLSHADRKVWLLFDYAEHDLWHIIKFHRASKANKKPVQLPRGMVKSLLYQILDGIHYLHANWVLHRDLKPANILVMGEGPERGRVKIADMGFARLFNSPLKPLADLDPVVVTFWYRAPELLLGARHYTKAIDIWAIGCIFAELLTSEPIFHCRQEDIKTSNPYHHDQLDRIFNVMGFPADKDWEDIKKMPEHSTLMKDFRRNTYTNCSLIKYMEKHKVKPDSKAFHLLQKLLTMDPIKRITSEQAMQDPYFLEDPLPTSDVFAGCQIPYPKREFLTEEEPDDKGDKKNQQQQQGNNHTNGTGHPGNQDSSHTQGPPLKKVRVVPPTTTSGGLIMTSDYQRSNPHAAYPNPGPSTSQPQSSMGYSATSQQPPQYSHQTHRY
T1 sequence (P24863 whole entry partner): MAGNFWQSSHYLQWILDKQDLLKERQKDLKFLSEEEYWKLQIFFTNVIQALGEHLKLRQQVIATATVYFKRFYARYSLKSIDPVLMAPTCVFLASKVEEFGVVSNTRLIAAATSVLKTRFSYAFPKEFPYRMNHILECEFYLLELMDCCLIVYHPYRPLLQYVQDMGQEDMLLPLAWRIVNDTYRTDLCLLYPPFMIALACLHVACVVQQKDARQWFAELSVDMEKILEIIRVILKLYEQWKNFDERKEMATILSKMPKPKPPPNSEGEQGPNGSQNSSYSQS

Structure (SMILES)	IC50
O=C(c1ccc2cncc(-c3ccc4c(c3)CS(=O)(=O)N4)c2n1)N1CCC(F)(F)C1 [Compound 30, (3,3-difluoro-pyrrolidin-1-yl)-[8-(2,2-dioxo-2,3-dihydro-1H-benzo[c]isothiazol-5-yl)-[1,6]naphthyridin-2-yl]-methanone]	< 10 nM
Nc1ncc(-c2ccc3c(c2)CS(=O)(=O)N3)c2nc(C(=O)N3CCC(F)(F)C3)ccc12 [Compound 50, (5-Amino-8-(2,2-dioxido-1,3-dihydrobenzo[c]isothiazol-5-yl)-1,6-naphthyridin-2-yl)(3,3-difluoropyrrolidin-1-yl)methanone]	10 to 100 nM
COC1CN(C(=O)c2ccc3cncc(-c4ccc(-c5cn(C)nc5C(F)(F)F)cc4)c3n2)C1 [Compound 49, (3-methoxyazetidin-1-yl)(8-(4-(1-methyl-3-(trifluoromethyl)-1H-pyrazol-4-yl)phenyl)-1,6-naphthyridin-2-yl)methanone]	10 to 100 nM
CN1c2ccc(-c3cncc4ccc(C(=O)NCCN)nc34)cc2CS1(=O)=O [Compound 16, 8-(1-Methyl-2,2-dioxo-2,3-dihydro-1H-benzo[c]isothiazol-5-yl)-[1,6]naphthyridine-2-carboxylic acid (2-amino-ethyl)-amide]	< 10 nM
O=C(c1ccc2cncc(Br)c2n1)N1CCC[C@H]1c1ccc(F)cc1 [Compound 90, (S)-(8-bromo-1,6-naphthyridin-2-yl)(2-(4-fluorophenyl)pyrrolidin-1-yl)methanone]	10 to 100 nM
CNCc1ccc2cncc(-c3ccc4c(c3)CS(=O)(=O)N4C)c2n1 [Compound 53, Methyl-[8-(1-methyl-2,2-dioxo-2,3-dihydro-1H-benzo[c]isothiazol-5-yl)-[1,6]naphthyridin-2-ylmethyl]-amine]	10 to 100 nM

Results, then the compound that gave them:

IC50	Structure (SMILES)
10 to 100 nM	Cn1cc(-c2ccc(-c3cncc4ccc(N5CCCC5=O)cc34)cc2)cn1 [Compound 128, 1-(4-(4-(1-Methyl-1H-pyrazol-4-yl)phenyl)isoquinolin-6-yl)pyrrolidin-2-one]
101 to 500 nM	COCCN(c1ccc2cncc(-c3ccc(-c4cnn(C)c4)cc3)c2c1)S(C)(=O)=O [Compound 167, N-(2-methoxyethyl)-N-(4-(4-(1-methyl-1H-pyrazol-4-yl)phenyl)isoquinolin-6-yl)methanesulfonamide]
10 to 100 nM	COCC(=O)Nc1ccc2cncc(-c3ccc(-c4cnn(C)c4)cc3)c2c1 [Compound 121, 2-Methoxy-N-{4-[4-(1-methyl-1H-pyrazol-4-yl)-phenyl]-isoquinolin-6-yl}-acetamide]
10 to 100 nM	CN1C(=O)CCc2cc(-c3cncc4ccc(C(=O)N5CC(F)(F)C5)cc34)ccc21 [Compound 158, 6-[6-(3,3-Difluoro-azetidine-1-carbonyl)-isoquinolin-4-yl]-1-methyl-3,4-dihydro-1H-quinolin-2-one]
10 to 100 nM	Cn1cc(-c2ccc(-c3cncc4ccc(-c5nnn(C)n5)cc34)cc2)cn1 [Compound 117, 4-(4-(1-methyl-1H-pyrazol-4-yl)phenyl)-6-(2-methyl-2H-tetrazol-5-yl)isoquinoline]
10 to 100 nM	Cc1nc(-c2ccc(-c3cnc(N)c4ccc(C(=O)N5CC(F)(F)C5)cc34)cc2)cn1C [Compound 176, {1-Amino-4-[4-(1,2-dimethyl-1H-imidazol-4-yl)-phenyl]-isoquinolin-6-yl}-(3,3-difluoro-azetidin-1-yl)-methanone]
10 to 100 nM	Cn1cc(-c2ccc(-c3cncc4ccc(C(=O)N5CCC(F)(F)C5)cc34)cc2)cn1 [Compound 195, (3,3-difluoropyrrolidin-1-yl)(4-(4-(1-methyl-1H-pyrazol-4-yl)phenyl)isoquinolin-6-yl)methanone]
10 to 100 nM	CN1C(=O)Cc2cc(-c3cncc4ccc(C(=O)N5CC(F)(F)C5)cc34)ccc21 [Compound 170, 5-[6-(3,3-Difluoro-azetidine-1-carbonyl)-isoquinolin-4-yl]-1-methyl-1,3-dihydro-indol-2-one]

— patent US20160016951A1 (Merck Patent GmbH, priority 2014, published 2016)
